Measurements as given in patent US7781591B2, “Substituted 3-cyanopyridines as protein kinase inhibitors” (Wyeth LLC, priority 2006, dated 2010).

How the values were obtained:
Format in all cases: biochemical
[1] = target: T1, purified recombinant active kinase domain of full length PKC theta (amino acids 362-706) (Homo sapiens, UniProt Q04759); assay: Radioactive kinase assay for inhibition of the active kinase domain (KD) of PKCθ; details: active kinase domain of PKC theta (amino acids 362-706), average value, read-out: IC50 PKCθKD
T1 construct: active kinase domain of full length PKC theta (amino acids 362-706)
T1 sequence (Q04759 362-706): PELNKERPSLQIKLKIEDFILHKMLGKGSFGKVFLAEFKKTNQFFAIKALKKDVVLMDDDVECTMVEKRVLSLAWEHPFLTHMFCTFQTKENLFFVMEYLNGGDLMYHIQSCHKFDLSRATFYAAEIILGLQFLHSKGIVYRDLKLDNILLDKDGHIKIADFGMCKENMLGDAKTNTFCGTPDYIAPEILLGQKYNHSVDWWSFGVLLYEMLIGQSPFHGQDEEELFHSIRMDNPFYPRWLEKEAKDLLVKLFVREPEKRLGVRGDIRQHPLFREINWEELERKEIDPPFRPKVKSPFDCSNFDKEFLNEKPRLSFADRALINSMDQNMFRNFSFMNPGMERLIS
Protocol: A Radioactive Kinase Assay for Inhibition of the Active Kinase Domain (KD) of PKCθ
This assay is based on the phosphorylation of a biotinylated substrate by a kinase utilizing radiolabeled ATP (ATP γ P33). The substrate was a biotinylated peptide with a sequence of biotin-[…]-C(O)NH2. The enzyme was purified recombinant active kinase domain of full length PKC theta (amino acids 362-706). The assay buffer was composed of 100 mM Hepes, pH7.5, 2 mM MgCl2, 20 mM β-glycerophosphate and 0.008% TritonX 100. A reaction mixture of ATP, ATP γ P33 (PerkinElmer), DTT, and the enzyme was prepared in the assay buffer and added to a 96-well polypropylene plate. The compound (diluted in DMSO in a separate 96-well polypropylene plate) was added to the reaction mixture and incubated at room temperature. Following the incubation, the peptide substrate was added to the reaction mixture to initiate the enzymatic reaction. The reaction was terminated with the addition of a stop solution (100 mM EDTA, 0.2% TritonX100, and 20 mM NaHPO4) and transferred from the assay plate to a washed streptavidin-coated 96-well scintiplate (PerkinElmer). The scintiplate was incubated at room temperature, washed in PBS with 0.1% TritonX 100, and counted in the 1450 Microbeta Trilux (Wallac, Version 2.60). Counts were recorded for each well as corrected counts per minute (CCPM). The counts were considered corrected because they were adjusted according to a P33 normalization protocol, which corrects for efficiency and background differences between the instrument detectors (software version 4.40.01).

[2] = target: T2, purified recombinant full length PKC theta (Panvera, P2996) (Homo sapiens, UniProt Q04759); assay: Radioactive kinase assay for inhibition of full length (FL) PKCθ; details: average value
T2 construct: purified recombinant full length PKC theta (Panvera, P2996); purchased Panvera P2996
T2 sequence (Q04759 whole entry): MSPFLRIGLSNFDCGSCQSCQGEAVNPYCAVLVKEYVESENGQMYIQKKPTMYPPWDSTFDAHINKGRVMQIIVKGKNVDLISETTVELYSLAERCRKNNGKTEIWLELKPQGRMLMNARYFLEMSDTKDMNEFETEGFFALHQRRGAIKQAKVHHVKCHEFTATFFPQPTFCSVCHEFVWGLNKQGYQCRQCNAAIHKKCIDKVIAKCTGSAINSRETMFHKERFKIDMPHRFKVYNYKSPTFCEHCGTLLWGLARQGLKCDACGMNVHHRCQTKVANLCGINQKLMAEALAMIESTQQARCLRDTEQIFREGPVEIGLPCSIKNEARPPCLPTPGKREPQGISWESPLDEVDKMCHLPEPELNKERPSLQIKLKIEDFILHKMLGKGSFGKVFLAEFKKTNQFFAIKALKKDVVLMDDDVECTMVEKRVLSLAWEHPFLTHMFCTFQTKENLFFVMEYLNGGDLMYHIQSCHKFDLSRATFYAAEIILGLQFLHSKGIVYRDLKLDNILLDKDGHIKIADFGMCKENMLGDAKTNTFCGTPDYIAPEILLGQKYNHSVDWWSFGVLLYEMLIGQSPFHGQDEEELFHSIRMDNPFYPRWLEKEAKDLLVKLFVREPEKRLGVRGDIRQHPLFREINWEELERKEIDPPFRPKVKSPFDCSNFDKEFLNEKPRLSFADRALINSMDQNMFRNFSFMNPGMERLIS

[3] = target: T3, human PKCθ full length enzyme (Homo sapiens, UniProt Q04759); assay: PKCθ IMAP assay (fluorescence polarization); details: human PKCθ full length enzyme, IMAP; average value; read-out: IC50 PKCθ IMAP
T3 construct: human PKCθ full length enzyme (Panvera Cat# P2996); purchased Panvera P2996
T3 sequence (Q04759 whole entry): as above

COc1ccc(-c2cncc(C#N)c2Nc2ccc3cc[nH]c3c2)cc1OC [Compound 108, 5-(3,4-dimethoxyphenyl)-4-(1H-indol-6-ylamino)nicotinonitrile]
IC50 [1]: 1010 nM
IC50 [2]: 2250 nM
IC50 [3]: 450 nM

COc1ccc(-c2cncc(C#N)c2Nc2ccc3c(c2)OCCO3)cc1OC [Compound 106, 4-(2,3-dihydro-1,4-benzodioxin-6-ylamino)-5-(3,4-dimethoxyphenyl)nicotinonitrile]
IC50 [1]: 11400 nM

COc1ccc(-c2cncc(C#N)c2Nc2ccc3[nH]ccc3c2)cc1OC [Compound 101, 5-(3,4-dimethoxyphenyl)-4-(1H-indol-5-ylamino)nicotinonitrile]
IC50 [1]: 140 nM
IC50 [2]: 83 nM
IC50 [3]: 140 nM

COc1ccc(-c2cncc(C#N)c2Nc2cccc3cnccc23)cc1OC [Compound 103, 5-(3,4-dimethoxyphenyl)-4-(isoquinolin-5-ylamino)nicotinonitrile]
IC50 [1]: 5680 nM

COc1ccc(-c2cncc(C#N)c2Nc2cccc3ncccc23)cc1OC [Compound 104, 5-(3,4-dimethoxyphenyl)-4-(quinolin-5-ylamino)nicotinonitrile]
IC50 [1]: 6560 nM

COc1ccc(-c2cncc(C#N)c2Nc2cccc3c2CCCC3)cc1OC [Compound 105, 5-(3,4-dimethoxyphenyl)-4-(5,6,7,8-tetrahydronaphthalen-1-ylamino)nicotinonitrile]
IC50 [1]: 2660 nM

COc1ccc(-c2cncc(C#N)c2Nc2cccc3[nH]ccc23)cc1OC [Compound 109, 5-(3,4-dimethoxyphenyl)-4-(1H-indol-4-ylamino)nicotinonitrile]
IC50 [1]: 150 nM
IC50 [2]: 40 nM
IC50 [3]: 13 nM

COc1ccc(-c2cncc(C#N)c2Nc2cccc3nsnc23)cc1OC [Compound 102, 4-(2,1,3-benzothiadiazol-4-ylamino)-5-(3,4-dimethoxyphenyl)nicotinonitrile]
IC50 [1]: 960 nM
